Data as given in ChEMBL document CHEMBL3272153, “Synthetic inhibitors of Escherichia coli, calf thymus, and Ehrlich ascites tumor thymidylate synthetase” (J Med Chem, 1976).

How the values were obtained:
[1] = Competitive inhibition of Escherichia coli thymidylate synthetase using 5-[3H]-dUMP as substrate after 7 mins by scintillation counting analysis
[2] = Competitive inhibition of calf thymus thymidylate synthetase using 5-[3H]-dUMP as substrate after 10 mins by scintillation counting analysis; set-up: species or system Bos taurus
Bos taurus [3] = species: Bos taurus; test: Ratio of Ki to Km for calf thymus thymidylate synthetase
Bos taurus [4] = species: Bos taurus; test: Irreversible inactivation of calf thymus thymidylate synthetase assessed as enzyme activity using dUMP as substrate at 0.33 mM preincubated for 3 hrs in absence of cofactor tetrahydrofolate
[5] = Selectivity ratio of Ki/Km for calf thymus thymidylate synthetase to Ki/Km for thymidylate synthetase in mouse Ehrlich ascites tumor cells
Bos taurus [6] = species: Bos taurus; test: Irreversible inactivation of calf thymus thymidylate synthetase assessed as enzyme activity using dUMP as substrate at 0.33 mM preincubated for 3 hrs in presence of cofactor tetrahydrofolate
Mus musculus [7] = species: Mus musculus; test: Irreversible inactivation of thymidylate synthetase in mouse Ehrlich ascites tumor cells assessed as enzyme activity using dUMP as substrate at 0.33 mM preincubated for 3 hrs in absence of cofactor tetrahydrofolate
Mus musculus [8] = species: Mus musculus; test: Irreversible inactivation of thymidylate synthetase in mouse Ehrlich ascites tumor cells assessed as enzyme activity using dUMP as substrate at 0.33 mM preincubated for 3 hrs in presence of cofactor tetrahydrofolate
[9] = Competitive inhibition of thymidylate synthetase in mouse Ehrlich ascites tumor cells using 5-[3H]-dUMP as substrate after 7 mins by scintillation counting analysis
Mus musculus [10] = species: Mus musculus; test: Ratio of Ki to Km for thymidylate synthetase in mouse Ehrlich ascites tumor cells
[11] = Retardation factor of the compound; format: physicochemical
[12] = Non-competitive inhibition of calf thymus thymidylate synthetase using 5-[3H]-dUMP as substrate after 10 mins by scintillation counting analysis; set-up: species or system Bos taurus
[13] = Inhibition of Escherichia coli thymidylate synthetase using 5-[3H]-dUMP as substrate

| Ki/Km (Bos taurus [3]) | Activity (Bos taurus [4]) | Selectivity ratio [5] | Activity (Bos taurus [6]) | Activity (Mus musculus [7]) | Activity (Mus musculus [8]) | Ki/Km (Mus musculus [10]) | Rf [11] | Structure (SMILES) | Ki [1] | Ki [2] | Ki [9] | Ki [12] | Ki [13] |
| --- | --- | --- | --- | --- | --- | --- | --- | --- | --- | --- | --- | --- | --- |
| 3.6 | 104% | 1 | 85% | 94% | 120% | 3.5 | 0.45 | O=c1[nH]c(=O)n([C@H]2C[C@H](O)[C@@H](COP(=O)(O)O)O2)cc1CC1CO1 (stereo not given in full) | 25 µM | 33 µM | 14 µM |  |  |
| 0.44 |  | 3 |  |  |  | 0.15 |  | O=c1[nH]c(=O)n([C@H]2C[C@H](O)[C@@H](COP(=O)(O)O)O2)cc1CO | 4 µM | 4 µM | 0.6 µM |  | 10.5 µM |
| 3.5 |  | 0.7 |  |  |  | 4.7 |  | COCc1cn([C@H]2C[C@H](O)[C@@H](COP(=O)(O)O)O2)c(=O)[nH]c1=O | 42 µM | 32 µM | 19 µM |  |  |

Continued, compound first:

| Structure (SMILES) | Ki/Km (Bos taurus [3]) | Activity (Bos taurus [4]) | Selectivity ratio [5] | Activity (Bos taurus [6]) | Activity (Mus musculus [7]) | Activity (Mus musculus [8]) | Ki/Km (Mus musculus [10]) | Rf [11] | Ki [1] | Ki [2] | Ki [9] | Ki [12] | Ki [13] |
| --- | --- | --- | --- | --- | --- | --- | --- | --- | --- | --- | --- | --- | --- |
| [N-]=[N+]=NCc1cn([C@H]2C[C@H](O)[C@@H](COP(=O)(O)O)O2)c(=O)[nH]c1=O | 2.3 | 77% | 1.9 | 83% | 60% | 87% | 1.2 |  | 18 µM | 21 µM | 5 µM |  |  |
| C=CCc1cn([C@H]2C[C@H](O)[C@@H](COP(=O)(O)O)O2)c(=O)[nH]c1=O | 14 |  | 1.4 |  |  |  | 10 | 0.55 | 135 µM | 130 µM | 40 µM |  |  |
| CC(=O)c1cn([C@H]2C[C@H](O)[C@@H](COP(=O)(O)O)O2)c(=O)[nH]c1=O | 8.1 |  | 1.5 |  |  |  | 5.5 |  | 64 µM | 73 µM | 22 µM |  |  |
| O=Cc1cn([C@H]2C[C@H](O)[C@@H](COP(=O)(O)O)O2)c(=O)[nH]c1=O | 0.01 |  | 0.5 |  |  |  | 0.02 |  | 0.1 µM |  | 0.08 µM | 0.09 µM | 0.013 µM |
| O=c1[nH]c(=O)n([C@H]2C[C@H](O)[C@@H](COP(=O)(O)O)O2)cc1COCc1ccccc1 | 4.6 |  | 2 |  |  |  | 2.2 |  | 25 µM | 42 µM | 9 µM |  |  |
